System: panel of nearly 500 cancer cell lines
Assay: Cancer Cell Line Encyclopedia profiling, 3-day CellTiter-Glo
Type: cell-based
Parameters: Amax: unit not given here

CN(C)C(=O)c1cc2cnc(Nc3ccc(N4CCNCC4)cn3)nc2n1C1CCCC1 [Ribociclib, 7-cyclopentyl-2-(5-piperazin-1-yl-pyridin-2-ylamino)-7H-pyrrolo[2,3-d]pyrimidine-6-carboxylic acid dimethylamide]
Amax (8mgba (central_nervous_system)): 0.325 | Amax (769p (kidney)): -56.5199 | Amax (786o (kidney)): 2.199 | Amax (8305c (thyroid)): -43.2823 | Amax (8505c (thyroid)): -10.3812 | EC50 (CMK-86): 0.195 µM | IC50 (CMK-86): 0.513 µM | EC50 (COLO 699): 0.00254 µM | IC50 (COLO 699): > 8 µM | EC50 (COV318): > 8 µM | IC50 (COV318): > 8 µM | EC50 (COV504): > 8 µM | IC50 (COV504): > 8 µM | EC50 (Fu97): 0.483 µM | IC50 (Fu97): > 8 µM | EC50 (GLC82): > 8 µM | IC50 (GLC82): > 8 µM | EC50 (HCC15): > 8 µM | IC50 (HCC15): > 8 µM | EC50 (HEC-6): > 8 µM | IC50 (HEC-6): > 8 µM | EC50 (HEC-251): > 8 µM | IC50 (HEC-251): > 8 µM | EC50 (HEY A8): 2.2 µM | IC50 (HEY A8): > 8 µM | EC50 (Homo sapiens, 8-MG-BA): > 8 µM | IC50 (Homo sapiens, 8-MG-BA): > 8 µM | EC50 (Homo sapiens, 22Rv1): 0.99 µM | IC50 (Homo sapiens, 22Rv1): 3.81 µM | EC50 (Homo sapiens, 639-V): > 8 µM | IC50 (Homo sapiens, 639-V): > 8 µM | EC50 (Homo sapiens, 769-P): 1.14 µM | IC50 (Homo sapiens, 769-P): 4.43 µM | EC50 (Homo sapiens, 786-0): > 8 µM | IC50 (Homo sapiens, 786-0): > 8 µM | EC50 (Homo sapiens, 8305C): > 8 µM | IC50 (Homo sapiens, 8305C): > 8 µM | EC50 (Homo sapiens, 8505C): 1.87 µM | IC50 (Homo sapiens, 8505C): > 8 µM | EC50 (Homo sapiens, A 172): > 8 µM | IC50 (Homo sapiens, A 172): > 8 µM | EC50 (Homo sapiens, A204): 0.0389 µM | IC50 (Homo sapiens, A204): > 8 µM | EC50 (Homo sapiens, A253): > 8 µM | IC50 (Homo sapiens, A253): > 8 µM | EC50 (Homo sapiens, A549): 0.801 µM | IC50 (Homo sapiens, A549): > 8 µM | EC50 (Homo sapiens, A673): 0.568 µM | IC50 (Homo sapiens, A673): > 8 µM | EC50 (Homo sapiens, A2058): > 8 µM | IC50 (Homo sapiens, A2058): > 8 µM | EC50 (Homo sapiens, A2780): 0.201 µM | IC50 (Homo sapiens, A2780): 4.04 µM | EC50 (Homo sapiens, A-375): > 8 µM | IC50 (Homo sapiens, A-375): 8 µM | EC50 (Homo sapiens, ACHN): > 8 µM | IC50 (Homo sapiens, ACHN): > 8 µM | EC50 (Homo sapiens, AMO1): > 8 µM | IC50 (Homo sapiens, AMO1): > 8 µM | EC50 (Homo sapiens, AN3-CA): > 8 µM | IC50 (Homo sapiens, AN3-CA): > 8 µM | EC50 (Homo sapiens, ASPC1): > 8 µM | IC50 (Homo sapiens, ASPC1): > 8 µM | EC50 (Homo sapiens, AU565): > 8 µM | IC50 (Homo sapiens, AU565): > 8 µM | EC50 (Homo sapiens, AZ-521): > 8 µM | IC50 (Homo sapiens, AZ-521): > 8 µM | EC50 (Homo sapiens, BCPAP): > 8 µM | IC50 (Homo sapiens, BCPAP): > 8 µM | EC50 (Homo sapiens, BFTC-909): 3.38 µM | IC50 (Homo sapiens, BFTC-909): > 8 µM | EC50 (Homo sapiens, BGC-823): > 8 µM | IC50 (Homo sapiens, BGC-823): > 8 µM | EC50 (Homo sapiens, BL-41): > 8 µM | IC50 (Homo sapiens, BL-41): > 8 µM | EC50 (Homo sapiens, BT-474): > 8 µM | IC50 (Homo sapiens, BT-474): > 8 µM | EC50 (Homo sapiens, BT-549): > 8 µM | IC50 (Homo sapiens, BT-549): > 8 µM | EC50 (Homo sapiens, BXPC-3): > 8 µM | IC50 (Homo sapiens, BXPC-3): > 8 µM | EC50 (Homo sapiens, C2BBe1): > 8 µM | IC50 (Homo sapiens, C2BBe1): > 8 µM | EC50 (Homo sapiens, CAKI-2): > 8 µM | IC50 (Homo sapiens, CAKI-2): > 8 µM | EC50 (Homo sapiens, CAL-12T): 4.08 µM | IC50 (Homo sapiens, CAL-12T): 4.08 µM | EC50 (Homo sapiens, CAL-27): 3.83 µM | IC50 (Homo sapiens, CAL-27): > 8 µM | EC50 (Homo sapiens, CAL-85-1): > 8 µM | IC50 (Homo sapiens, CAL-85-1): > 8 µM | EC50 (Homo sapiens, CAMA-1): > 8 µM | IC50 (Homo sapiens, CAMA-1): > 8 µM | EC50 (Homo sapiens, CHL-1): > 8 µM | IC50 (Homo sapiens, CHL-1): > 8 µM | EC50 (Homo sapiens, CHP-212): 0.126 µM | IC50 (Homo sapiens, CHP-212): 1.84 µM | EC50 (Homo sapiens, COLO 201): > 8 µM | IC50 (Homo sapiens, COLO 201): > 8 µM | EC50 (Homo sapiens, COLO 205): 1.24 µM | IC50 (Homo sapiens, COLO 205): 3.46 µM | EC50 (Homo sapiens, COLO 320): > 8 µM | IC50 (Homo sapiens, COLO 320): > 8 µM | EC50 (Homo sapiens, COLO-678): 0.475 µM | IC50 (Homo sapiens, COLO-678): > 8 µM | EC50 (Homo sapiens, COLO-679): 1.03 µM | IC50 (Homo sapiens, COLO-679): > 8 µM | EC50 (Homo sapiens, COLO-741): 2.13 µM | IC50 (Homo sapiens, COLO-741): > 8 µM | EC50 (Homo sapiens, COR-L23): > 8 µM | IC50 (Homo sapiens, COR-L23): > 8 µM | EC50 (Homo sapiens, COR-L105): > 8 µM | IC50 (Homo sapiens, COR-L105): > 8 µM | EC50 (Homo sapiens, Calu-1): > 8 µM | IC50 (Homo sapiens, Calu-1): > 8 µM | EC50 (Homo sapiens, Calu-3): > 8 µM | IC50 (Homo sapiens, Calu-3): > 8 µM | EC50 (Homo sapiens, Calu-6): 1.48 µM | IC50 (Homo sapiens, Calu-6): > 8 µM | EC50 (Homo sapiens, Capan-2): > 8 µM | IC50 (Homo sapiens, Capan-2): > 8 µM | EC50 (Homo sapiens, DBTRG-05MG): 0.347 µM | IC50 (Homo sapiens, DBTRG-05MG): > 8 µM | EC50 (Homo sapiens, DMS-114): 0.112 µM | IC50 (Homo sapiens, DMS-114): > 8 µM | EC50 (Homo sapiens, DOHH-2): 0.122 µM | IC50 (Homo sapiens, DOHH-2): > 8 µM | EC50 (Homo sapiens, DOV13): > 8 µM | IC50 (Homo sapiens, DOV13): > 8 µM | EC50 (Homo sapiens, DU-145): > 8 µM | IC50 (Homo sapiens, DU-145): > 8 µM | EC50 (Homo sapiens, DV-90): 0.00743 µM | IC50 (Homo sapiens, DV-90): > 8 µM | EC50 (Homo sapiens, Daoy): > 8 µM | IC50 (Homo sapiens, Daoy): > 8 µM | EC50 (Homo sapiens, Detroit 562): > 8 µM | IC50 (Homo sapiens, Detroit 562): > 8 µM | EC50 (Homo sapiens, EBC-1): 0.44 µM | IC50 (Homo sapiens, EBC-1): > 8 µM | EC50 (Homo sapiens, EFE-184): > 8 µM | IC50 (Homo sapiens, EFE-184): > 8 µM | EC50 (Homo sapiens, EFM-19): 0.0482 µM | IC50 (Homo sapiens, EFM-19): > 8 µM | EC50 (Homo sapiens, EFO-21): > 8 µM | IC50 (Homo sapiens, EFO-21): > 8 µM | EC50 (Homo sapiens, EFO-27): > 8 µM | IC50 (Homo sapiens, EFO-27): > 8 µM | EC50 (Homo sapiens, ESS-1): 0.867 µM | IC50 (Homo sapiens, ESS-1): > 8 µM | EC50 (Homo sapiens, FaDu): > 8 µM | IC50 (Homo sapiens, FaDu): > 8 µM | EC50 (Homo sapiens, G-361): > 8 µM | IC50 (Homo sapiens, G-361): > 8 µM | EC50 (Homo sapiens, G-401): 0.00888 µM | IC50 (Homo sapiens, G-401): > 8 µM | EC50 (Homo sapiens, G-402): 0.467 µM | IC50 (Homo sapiens, G-402): 2.05 µM | EC50 (Homo sapiens, GAMG): > 8 µM | IC50 (Homo sapiens, GAMG): > 8 µM | EC50 (Homo sapiens, GCIY): > 8 µM | IC50 (Homo sapiens, GCIY): > 8 µM | EC50 (Homo sapiens, GMS-10): > 8 µM | IC50 (Homo sapiens, GMS-10): > 8 µM | EC50 (Homo sapiens, Granta-519): > 8 µM | IC50 (Homo sapiens, Granta-519): > 8 µM | EC50 (Homo sapiens, HCC44): 1.59 µM | IC50 (Homo sapiens, HCC44): > 8 µM | EC50 (Homo sapiens, HCC70): > 8 µM | IC50 (Homo sapiens, HCC70): > 8 µM | EC50 (Homo sapiens, HCC78): > 8 µM | IC50 (Homo sapiens, HCC78): > 8 µM | EC50 (Homo sapiens, HCC827): > 8 µM | IC50 (Homo sapiens, HCC827): > 8 µM | EC50 (Homo sapiens, HCC1187): > 8 µM | IC50 (Homo sapiens, HCC1187): > 8 µM | EC50 (Homo sapiens, HCC1395): > 8 µM | IC50 (Homo sapiens, HCC1395): > 8 µM | EC50 (Homo sapiens, HCC1569): > 8 µM | IC50 (Homo sapiens, HCC1569): > 8 µM | EC50 (Homo sapiens, HCC1806): > 8 µM | IC50 (Homo sapiens, HCC1806): > 8 µM | EC50 (Homo sapiens, HCC1954): > 8 µM | IC50 (Homo sapiens, HCC1954): > 8 µM | EC50 (Homo sapiens, HCC2935): > 8 µM | IC50 (Homo sapiens, HCC2935): > 8 µM | EC50 (Homo sapiens, HCC4006): > 8 µM | IC50 (Homo sapiens, HCC4006): > 8 µM | EC50 (Homo sapiens, HCT-15): 4.53 µM | IC50 (Homo sapiens, HCT-15): > 8 µM | EC50 (Homo sapiens, HCT-116): > 8 µM | IC50 (Homo sapiens, HCT-116): > 8 µM | EC50 (Homo sapiens, HDQ-P1): 0.506 µM | IC50 (Homo sapiens, HDQ-P1): > 8 µM | EC50 (Homo sapiens, HEC-1-A): > 8 µM | IC50 (Homo sapiens, HEC-1-A): > 8 µM | EC50 (Homo sapiens, HEC-1B): 0.0275 µM | IC50 (Homo sapiens, HEC-1B): > 8 µM | EC50 (Homo sapiens, HEL 92.1.7): > 8 µM | IC50 (Homo sapiens, HEL 92.1.7): > 8 µM | EC50 (Homo sapiens, HGC-27): 0.188 µM | IC50 (Homo sapiens, HGC-27): 0.534 µM | EC50 (Homo sapiens, HMCB): > 8 µM | IC50 (Homo sapiens, HMCB): > 8 µM | EC50 (Homo sapiens, HPAC): 2.67 µM | IC50 (Homo sapiens, HPAC): 2.67 µM
